Measurements published in ChEMBL document CHEMBL1201862, “PubChem BioAssay data set” (2004).
The source made the active and inactive calls.

Legend:
Fatty acid synthase [1] = biological target: T1, Fatty acid synthase (Homo sapiens, UniProt P49327); experiment: inhibition of human FAS-TE enzyme activity – biochemical, kinetic fluorescence intensity, dose response (AID 624326); assay type: functional;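 also: rate of fluorescence rise from hydrolysis of a fluorogenic O-methyl fluorescein ester substrate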
Fatty acid synthase [2] = biological target: T1, Fatty acid synthase; experiment: inhibition of human FAS-TE enzyme activity – biochemical, endpoint fluorescence intensity, uHTS hits, dose response (AID 624327); assay type: functional;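 also: fluorescence from hydrolysis of an O-methyl fluorescein acyl ester substrate by the enzyme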
[3] = Luminescence Cell-Based Dose Retest to Confirm Inhibitors of Cancer Stem Cells. [Related pubchem assays (depositor defined):AID2717, AID2721]; assay type: functional; conditions: Homo sapiens
INS1 = experiment: INS-1E survival protection against cytokine death – cell-based, luminescence, retest, dose response (AID 449756); assay type: functional; conditions: Rattus norvegicus;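 also: cell death triggered by IL-1 beta plus TNF-alpha plus IFN-gamma mixture; protective hits raise ATP signal compared with cytokine alone wells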
[4] = loss of viability in HepG2 cells – cell-based, CellTiter-Glo, cherry-picked, cytotoxicity control for Shn3 inhibitor project, dose response (AID 624134); assay type: functional
[5] = non-specific 3'UTR reporter inhibition in Clone20-Shn3RL – cell-based, Renilla luciferase, cherry-picked, counter-screen for Shn3 inhibitor project, dose response (AID 624133); assay type: functional
[6] = reduction of Shn3 3'UTR-driven luciferase in osteoblasts – cell-based, Clone20 osteoblasts, firefly luciferase, cherry-picked, dose response (AID 624132); assay type: functional;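 also: firefly luciferase luminescence from reporter carrying the Shn3 3'UTR in osteoblasts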
Nonstructural protein 1 = Nonstructural protein 1 (Influenza A virus, UniProt Q194T2); assay type: functional, Influenza A virus (A/California/07/2009(H1N1))
[7] = Luminescence Cell-Based Dose Response HTS to Identify Inhibitors of 5'UTR Stem-Loop Driven Prion Protein mRNA Translation in H4 Neuroglioblastoma Cells. [Related pubchem assays: 1827 (Project Summary), 1813 (Primary HTS)]; assay type: functional
[8] = alpha-synuclein stem-loop luciferase translation blockers – H4 neuroglioma cells, luminescence, confirmation (AID 1988); assay type: functional, cell-based
[9] = luciferase reporter signal suppression in cells – H4 neuroglioma cells, luminescence, dose response (AID 1990); assay type: functional, cell-based
Cytochrome P450 3A4 = Cytochrome P450 3A4 (Homo sapiens, UniProt P08684); conditions: Potency;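 also: confirmatory qHTS run detecting inhibitors and substrates of CYP3A4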
BJ [10] = experiment: BJ-TERT-LT-ST fibroblast viability loss – cell-based, RAS-independent, luminescence, dose response (AID 1935); assay type: functional; conditions: Homo sapiens;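 also: BJ fibroblasts immortalized with TERT plus LT and ST oncogenes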
[11] = DRD fibroblast viability loss – cell-based, non-viral oncogenic, luminescence, dose response (AID 1934); assay type: functional; conditions: Homo sapiens
[12] = viability of uninfected HEp-2 cells – cell-based, HTS, cytotoxicity control for RSV inhibitor project, dose response (AID 2410); assay type: functional; conditions: human respiratory syncytial virus
[13] = biological target: T2, Replicative DNA helicase DnaB (Mycobacterium tuberculosis, UniProt P9WMR3); experiment: DnaB intein splicing inhibitors, dose response, biochemical, cell-free fluorescence (AID 449749); assay type: functional
T2 sequence (P9WMR3 whole entry): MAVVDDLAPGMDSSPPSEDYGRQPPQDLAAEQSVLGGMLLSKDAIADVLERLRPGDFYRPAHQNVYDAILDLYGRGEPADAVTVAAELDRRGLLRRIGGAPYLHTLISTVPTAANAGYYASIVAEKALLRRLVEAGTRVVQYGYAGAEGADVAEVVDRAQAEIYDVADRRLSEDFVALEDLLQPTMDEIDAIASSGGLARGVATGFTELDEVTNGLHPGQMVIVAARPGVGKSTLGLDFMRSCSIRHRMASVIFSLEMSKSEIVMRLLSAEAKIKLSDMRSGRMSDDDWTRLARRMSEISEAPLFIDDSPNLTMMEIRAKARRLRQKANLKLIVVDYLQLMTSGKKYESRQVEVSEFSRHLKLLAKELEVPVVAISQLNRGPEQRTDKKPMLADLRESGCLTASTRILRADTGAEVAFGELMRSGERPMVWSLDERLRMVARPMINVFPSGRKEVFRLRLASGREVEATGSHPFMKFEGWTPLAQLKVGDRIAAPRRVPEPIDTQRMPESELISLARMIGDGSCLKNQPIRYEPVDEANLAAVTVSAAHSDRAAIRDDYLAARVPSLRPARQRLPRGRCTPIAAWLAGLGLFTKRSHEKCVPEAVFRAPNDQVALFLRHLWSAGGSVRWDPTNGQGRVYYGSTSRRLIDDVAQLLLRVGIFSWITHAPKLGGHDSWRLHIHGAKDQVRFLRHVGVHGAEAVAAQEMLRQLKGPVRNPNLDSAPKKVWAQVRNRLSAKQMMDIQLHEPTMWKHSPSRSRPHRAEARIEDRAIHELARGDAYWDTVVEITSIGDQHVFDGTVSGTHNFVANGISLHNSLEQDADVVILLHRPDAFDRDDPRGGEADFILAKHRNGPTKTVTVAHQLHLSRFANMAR

BJ [14] = experiment: cells; assay type: functional, cell-based; conditions: Homo sapiens
Protein RecA = biological target: T3, Protein RecA (Mycobacterium tuberculosis, UniProt P9WHJ3); experiment: Fluorescence Cell-Free Homogeneous Dose Retest to Identify Inhibitors of RecA-Intein Splicing Activity. [Related pubchem assays (depositor defined):AID2097, AID2223, AID489010, AID492950]; assay type: functional
T3 sequence (P9WHJ3 whole entry): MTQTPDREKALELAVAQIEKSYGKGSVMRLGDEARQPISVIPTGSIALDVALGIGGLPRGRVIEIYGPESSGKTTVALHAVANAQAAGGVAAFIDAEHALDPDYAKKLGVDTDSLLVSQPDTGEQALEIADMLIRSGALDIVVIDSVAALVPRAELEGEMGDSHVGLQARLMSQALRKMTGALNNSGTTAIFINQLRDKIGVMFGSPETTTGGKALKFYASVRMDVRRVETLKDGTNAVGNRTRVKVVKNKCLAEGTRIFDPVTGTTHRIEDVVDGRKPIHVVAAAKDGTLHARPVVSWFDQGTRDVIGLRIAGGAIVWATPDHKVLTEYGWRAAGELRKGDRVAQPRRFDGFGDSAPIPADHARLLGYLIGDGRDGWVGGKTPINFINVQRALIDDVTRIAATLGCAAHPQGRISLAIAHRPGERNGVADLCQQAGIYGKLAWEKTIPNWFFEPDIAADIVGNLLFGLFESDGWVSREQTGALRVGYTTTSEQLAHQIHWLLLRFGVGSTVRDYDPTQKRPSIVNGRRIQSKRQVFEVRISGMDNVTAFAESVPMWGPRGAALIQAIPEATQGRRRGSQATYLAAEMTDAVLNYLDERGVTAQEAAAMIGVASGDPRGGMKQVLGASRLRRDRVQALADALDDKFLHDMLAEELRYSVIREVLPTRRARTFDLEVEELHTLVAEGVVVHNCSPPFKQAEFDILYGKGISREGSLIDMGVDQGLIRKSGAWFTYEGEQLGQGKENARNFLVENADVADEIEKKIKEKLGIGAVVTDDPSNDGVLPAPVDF

BJ [15] = experiment: BJ-TERT fibroblast viability loss – cell-based, RAS-independent, luminescence, dose response (AID 1933); assay type: functional; conditions: Homo sapiens
[16] = biological target: Luciferin 4-monooxygenase (Photinus pyralis, UniProt P08659); experiment: inhibition of purified Photinus pyralis luciferase – biochemical, luminescence, dose response (AID 1891)
[17] = Luminescence Cell-Based Dose Confirmation HTS to Identify Inhibitors of Platelet Dense Granule Release. [Related pubchem assays: 1663 (Primary HTS), 1678 (Summary of Project)]; assay type: functional

Sequence of Cytochrome P450 3A4 (P08684 whole entry): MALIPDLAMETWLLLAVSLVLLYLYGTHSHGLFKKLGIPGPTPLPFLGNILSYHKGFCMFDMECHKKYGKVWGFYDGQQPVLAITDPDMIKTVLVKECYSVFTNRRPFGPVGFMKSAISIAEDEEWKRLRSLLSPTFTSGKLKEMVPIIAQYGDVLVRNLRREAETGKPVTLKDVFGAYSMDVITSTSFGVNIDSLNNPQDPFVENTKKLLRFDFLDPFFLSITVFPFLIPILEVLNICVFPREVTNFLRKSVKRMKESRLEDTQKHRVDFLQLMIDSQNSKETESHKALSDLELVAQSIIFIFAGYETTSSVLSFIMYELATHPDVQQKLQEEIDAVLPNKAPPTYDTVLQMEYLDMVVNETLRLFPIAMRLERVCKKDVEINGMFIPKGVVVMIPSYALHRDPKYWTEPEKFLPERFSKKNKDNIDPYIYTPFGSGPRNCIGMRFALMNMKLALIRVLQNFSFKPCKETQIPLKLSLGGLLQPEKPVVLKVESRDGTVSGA
Sequence of Nonstructural protein 1 (Q194T2 whole entry): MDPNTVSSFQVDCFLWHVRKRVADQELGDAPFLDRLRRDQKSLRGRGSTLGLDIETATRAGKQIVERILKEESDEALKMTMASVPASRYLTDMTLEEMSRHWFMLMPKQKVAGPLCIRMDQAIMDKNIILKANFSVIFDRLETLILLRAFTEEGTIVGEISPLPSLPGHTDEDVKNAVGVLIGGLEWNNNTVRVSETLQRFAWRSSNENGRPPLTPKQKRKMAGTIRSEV
T1 sequence (P49327 whole entry): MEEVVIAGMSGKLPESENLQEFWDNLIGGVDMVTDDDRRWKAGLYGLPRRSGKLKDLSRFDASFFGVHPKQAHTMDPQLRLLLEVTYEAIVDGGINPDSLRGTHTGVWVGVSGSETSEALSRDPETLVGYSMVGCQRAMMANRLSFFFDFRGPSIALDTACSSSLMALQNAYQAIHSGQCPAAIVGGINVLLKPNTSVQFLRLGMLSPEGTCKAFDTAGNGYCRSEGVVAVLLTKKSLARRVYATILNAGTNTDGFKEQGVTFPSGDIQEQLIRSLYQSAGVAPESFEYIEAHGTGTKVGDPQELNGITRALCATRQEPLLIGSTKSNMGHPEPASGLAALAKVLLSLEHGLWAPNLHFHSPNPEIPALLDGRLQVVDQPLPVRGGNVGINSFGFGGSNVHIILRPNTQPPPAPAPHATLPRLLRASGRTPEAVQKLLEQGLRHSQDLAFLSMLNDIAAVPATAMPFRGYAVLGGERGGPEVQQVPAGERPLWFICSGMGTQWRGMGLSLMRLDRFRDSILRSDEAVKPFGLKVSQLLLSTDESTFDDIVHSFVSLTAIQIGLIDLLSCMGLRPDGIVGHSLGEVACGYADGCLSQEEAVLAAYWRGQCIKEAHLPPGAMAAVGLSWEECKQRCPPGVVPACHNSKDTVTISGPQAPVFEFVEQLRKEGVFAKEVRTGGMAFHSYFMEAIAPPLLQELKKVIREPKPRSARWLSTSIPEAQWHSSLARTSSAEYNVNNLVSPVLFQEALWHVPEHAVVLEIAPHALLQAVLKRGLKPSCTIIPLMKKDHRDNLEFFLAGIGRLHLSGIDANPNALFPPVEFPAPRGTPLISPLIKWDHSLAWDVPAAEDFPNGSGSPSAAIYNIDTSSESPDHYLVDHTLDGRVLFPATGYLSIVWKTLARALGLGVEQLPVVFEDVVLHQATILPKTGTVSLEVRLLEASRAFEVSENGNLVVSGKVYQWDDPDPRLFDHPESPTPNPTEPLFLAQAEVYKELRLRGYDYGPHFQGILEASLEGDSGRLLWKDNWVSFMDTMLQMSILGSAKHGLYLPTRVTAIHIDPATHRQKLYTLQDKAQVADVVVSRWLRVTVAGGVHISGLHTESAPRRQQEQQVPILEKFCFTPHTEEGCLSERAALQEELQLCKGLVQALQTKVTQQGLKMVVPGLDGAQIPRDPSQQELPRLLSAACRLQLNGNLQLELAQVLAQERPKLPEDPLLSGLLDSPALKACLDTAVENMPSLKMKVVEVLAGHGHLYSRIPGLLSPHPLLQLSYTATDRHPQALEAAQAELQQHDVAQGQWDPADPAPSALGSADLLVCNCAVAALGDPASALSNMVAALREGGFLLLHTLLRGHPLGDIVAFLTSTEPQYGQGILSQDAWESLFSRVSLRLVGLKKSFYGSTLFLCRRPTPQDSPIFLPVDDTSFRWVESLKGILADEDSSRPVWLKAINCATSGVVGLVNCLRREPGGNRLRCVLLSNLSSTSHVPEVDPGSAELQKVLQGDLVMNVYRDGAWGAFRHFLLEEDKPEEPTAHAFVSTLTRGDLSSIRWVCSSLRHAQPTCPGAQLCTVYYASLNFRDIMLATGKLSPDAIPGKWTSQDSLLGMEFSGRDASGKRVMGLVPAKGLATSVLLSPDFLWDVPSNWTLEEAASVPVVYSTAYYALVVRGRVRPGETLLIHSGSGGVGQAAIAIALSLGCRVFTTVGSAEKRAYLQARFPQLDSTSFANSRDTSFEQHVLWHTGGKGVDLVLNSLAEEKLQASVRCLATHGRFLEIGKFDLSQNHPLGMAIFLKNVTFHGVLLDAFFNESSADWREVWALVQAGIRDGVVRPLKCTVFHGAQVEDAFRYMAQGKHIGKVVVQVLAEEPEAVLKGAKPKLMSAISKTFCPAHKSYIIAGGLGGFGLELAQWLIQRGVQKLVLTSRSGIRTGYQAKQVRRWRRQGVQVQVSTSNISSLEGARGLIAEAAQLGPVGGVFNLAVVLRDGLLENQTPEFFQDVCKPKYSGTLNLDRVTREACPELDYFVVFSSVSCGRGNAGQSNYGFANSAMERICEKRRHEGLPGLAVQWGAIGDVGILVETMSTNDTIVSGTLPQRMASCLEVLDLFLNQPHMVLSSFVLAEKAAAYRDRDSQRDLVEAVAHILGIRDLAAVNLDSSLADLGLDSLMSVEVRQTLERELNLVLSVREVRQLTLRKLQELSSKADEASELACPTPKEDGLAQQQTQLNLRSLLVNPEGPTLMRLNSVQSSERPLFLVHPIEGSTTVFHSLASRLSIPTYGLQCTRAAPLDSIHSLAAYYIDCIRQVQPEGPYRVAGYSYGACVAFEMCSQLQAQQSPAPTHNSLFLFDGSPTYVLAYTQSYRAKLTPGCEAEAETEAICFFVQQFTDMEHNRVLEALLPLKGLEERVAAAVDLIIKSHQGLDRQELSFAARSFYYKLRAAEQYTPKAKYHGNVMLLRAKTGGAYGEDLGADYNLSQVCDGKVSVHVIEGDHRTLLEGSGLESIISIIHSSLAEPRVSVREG
Sequence of Luciferin 4-monooxygenase (P08659 whole entry): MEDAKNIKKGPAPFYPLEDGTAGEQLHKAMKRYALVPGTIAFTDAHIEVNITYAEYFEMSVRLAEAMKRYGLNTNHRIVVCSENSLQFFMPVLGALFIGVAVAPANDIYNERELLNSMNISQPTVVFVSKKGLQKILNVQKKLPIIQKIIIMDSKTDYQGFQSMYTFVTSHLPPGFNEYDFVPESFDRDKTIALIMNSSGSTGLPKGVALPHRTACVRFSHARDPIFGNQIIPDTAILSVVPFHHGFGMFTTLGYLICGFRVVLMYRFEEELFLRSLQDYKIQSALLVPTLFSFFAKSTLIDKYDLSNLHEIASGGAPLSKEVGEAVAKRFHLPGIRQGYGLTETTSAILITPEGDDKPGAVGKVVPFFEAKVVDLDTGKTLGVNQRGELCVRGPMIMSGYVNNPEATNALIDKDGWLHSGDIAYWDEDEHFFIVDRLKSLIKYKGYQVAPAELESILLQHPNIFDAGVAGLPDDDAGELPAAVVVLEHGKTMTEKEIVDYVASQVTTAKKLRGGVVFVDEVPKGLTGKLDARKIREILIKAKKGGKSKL

**Q.** For `O=C(COC(=O)c1cc([N+](=O)[O-])ccc1N1CCOCC1)Nc1c(Cl)cccc1Cl`, which IC50 (Fatty acid synthase [1]) is on record?
**A.** The IC50 was 6.21 µM (active).

**Q.** And the IC50 (Fatty acid synthase [2])?
**A.** Its IC50 is 7.85 µM (active).

**Q.** Which AC50 [3] does the source give for `O=C(/C=C/c1c[nH]c2ccccc12)c1cccc2ccccc12` here?
**A.** The AC50 was 2.92 µM (active).

**Q.** With `Cc1cc(N2CCCC2=O)cc(C)c1S(=O)(=O)NCCOc1ccc(C(C)(C)C)cc1` as the compound, how does the AC50 (INS1) read?
**A.** Its AC50 is 2.58 µM (active).

**Q.** And the AC50 [4]?
**A.** Its AC50 is 51.4 µM (active).

**Q.** What about the AC50 [5] of the same compound?
**A.** Its AC50 is 2.36 µM (active).

**Q.** And the AC50 [6]?
**A.** The AC50 was 1.15 µM (active).

**Q.** For `CC(C)(C)c1cc(CSC(S)=NC2CCS(=O)(=O)C2)c(Br)c(C(C)(C)C)c1` (configuration not stated), which AC50 [3] is on record?
**A.** The AC50 was 3.19 µM (active).

**Q.** Which IC50 (Nonstructural protein 1) does the source give for `O=C1[C@@H]2Cc3c([nH]c4ccccc34)C(c3ccccc3)N2C(=O)CN1C1CCN(Cc2ccccc2)CC1` (some centres not stated) here?
**A.** Its IC50 is > 100 µM (active).

**Q.** What does the source list for `CC(C)(C)c1ccc(OCCON2C(=O)CCC2=O)c(Cl)c1`?
**A.** EC50 [7]: 13.6 µM (active); EC50 [8]: 18.3 µM (active); EC50 [9]: > 120 µM (not active)

**Q.** For `Nc1[nH]c(N=NC(=O)c2ccccc2O)c2ccccc12`, which IC50 (Nonstructural protein 1) is on record?
**A.** The IC50 was 24.5 µM (active).

**Q.** For `Cn1c(N)c(C(=O)COC(=O)c2cc(C3CC3)nc3ccccc23)c(=O)n(Cc2ccccc2)c1=O`, which AC50 (Cytochrome P450 3A4) is on record?
**A.** Its AC50 is 15.8 µM (inconclusive).

**Q.** With `COc1ccccc1/C=C1\SC(NNC(=O)c2cccc(Br)c2)=NC1=O` as the compound, how does the AC50 [3] read?
**A.** Its AC50 is 2.09 µM (active).

**Q.** Which results are given for `COc1ccc(NC(=O)Cn2nnc(-c3ccccc3NS(=O)(=O)c3ccccc3)n2)cc1`?
**A.** AC50 [4]: 9.81 µM (active); AC50 [5]: 16.1 µM (active); AC50 [6]: 0.485 µM (active)

**Q.** With `COc1ccccc1OCC(O)Cn1c(=N)n(Cc2ccccc2)c2ccccc21` (configuration not stated) as the compound, how does the AC50 [4] read?
**A.** The AC50 was 22.1 µM (active).

**Q.** And the AC50 [5]?
**A.** Its AC50 is 10.7 µM (active).

**Q.** What about the AC50 [6] of the same compound?
**A.** The AC50 was 4.01 µM (active).

**Q.** Which EC50 (BJ [10]) does the source give for `CCC(C)N(CC(=O)Nc1cccc(C)c1C)C(=O)CCl` (configuration not stated) here?
**A.** The EC50 was 10.8 µM (active).

**Q.** What about the EC50 [11] of the same compound?
**A.** The EC50 was 3.8 µM (active).

**Q.** What about the CC50 [12] of the same compound?
**A.** Its CC50 is 8.39 µM (active).

**Q.** What about the AC50 [13] of the same compound?
**A.** Its AC50 is 57.3 µM (active).

**Q.** And the EC50 (BJ [14])?
**A.** The EC50 was 5.48 µM (active).

**Q.** What about the EC50 (Protein RecA) of the same compound?
**A.** The EC50 was 8.81 µM (active).

**Q.** What about the EC50 (BJ [15]) of the same compound?
**A.** Its EC50 is 608 nM (active).

**Q.** Which AC50 [4] does the source give for `CCCCCCCN1C(Nc2ccccc2)=NC[C@@H]1Cc1ccccc1` here?
**A.** The AC50 was 23 µM (active).

**Q.** What about the AC50 [5] of the same compound?
**A.** Its AC50 is 6.34 µM (active).

**Q.** And the AC50 [6]?
**A.** Its AC50 is 4.82 µM (active).

**Q.** Which AC50 [3] does the source give for `CCOC(=O)c1[nH]c(C)c(C(=O)OCc2ccccc2F)c1C` here?
**A.** Its AC50 is 0.633 µM (active).

**Q.** With `COc1ccc(-c2cc(-c3cccnc3)c(C#N)c(N)n2)cc1` as the compound, how does the EC50 [7] read?
**A.** Its EC50 is 12.7 µM (active).

**Q.** What about the EC50 [8] of the same compound?
**A.** Its EC50 is 23 µM (active).

**Q.** And the EC50 [9]?
**A.** The EC50 was 22 µM (active).

**Q.** For `CC(C)(/N=N/C(C)(C)C(=N)N)C(=N)N`, which AC50 (Cytochrome P450 3A4) is on record?
**A.** Its AC50 is 39.8 µM (inconclusive).

**Q.** Which EC50 [16] does the source give for `COc1cc2cc(C(=O)N3CCN(Cc4ccc5c(c4)OCO5)CC3)[nH]c2cc1OC` here?
**A.** Its EC50 is > 112 µM (not active).

**Q.** What about the EC50 [7] of the same compound?
**A.** The EC50 was > 120 µM (not active).

**Q.** What about the EC50 [17] of the same compound?
**A.** Its EC50 is > 112 µM (not active).

**Q.** And the EC50 [8]?
**A.** Its EC50 is > 120 µM (not active).

**Q.** And the EC50 [9]?
**A.** The EC50 was > 120 µM (not active).

**Q.** For `COC1=C[C@H]2[C@H]3Cc4ccc(OC)c(O)c4[C@@]2(CCN3C)CC1=O`, which AC50 (Cytochrome P450 3A4) is on record?
**A.** Its AC50 is 31.6 µM (inconclusive).
